Data taken from patent publication US9493453B2, “Piperazinyl pyrimidine derivatives, preparation method and use thereof” (INSTITUTE OF PHARMACOLOGY AND TOXICOLOGY ACADEMY OF …, priority 2012, dated 2016).
Read-outs that look alike come from different tables or passages of the source.

Columns and labels:
mice rhinitis model = assay: Mice rhinitis model experiment (OVA-sensitized BALB/c mice); assay type: in vivo; settings: Example 8 compound 1 μg/Kg
Experimental: Mice Rhinitis Model Experiment
Female BALB/c mice (6-8 weeks) were sensitized with chicken ovalbumin (OVA, Sigma-Aldrich, St Louis, Mo., USA). The compound of the present invention (for example, the compound of Example 8) was administered to nasal mucosa, at a dose 1 μg/Kg. Glucocorticoid hormonal drug budesonide, a first-line clinical drug, was used as positive control, at a dose 1.28 mg/Kg. Meanwhile, there were provided a normal group wherein the mice were not sensitized and not administered, and an OVA group wherein the mice were sensitized and not administered. The following five indicators were detected: the number of sneezing, the number of nasal scratching within 10 min after administration; IL-4 level in bronchoalveolar lavage fluid; serum IgE level; lung tissue inflammation score. Lung tissue inflammation score was rated according to a single blind method: inflammation was divided into four levels from mild to severe, marked as 0-3 scores: 0 representing no detected inflammation; 1 representing occasional inflammatory cells being visible; 2 representing bronchus or blood vessel being surrounded by eosinophils, but less than five cell layers; 3 representing bronchus or blood vessel being surrounded by a large number of eosinophils, with 5 or more cell layers.

CCR4 receptor = target: T1, CCR4 receptor (Homo sapiens, UniProt P51679); assay: Inhibition of MDC/TARC/C27 mediated chemotactic response of CCR4-transfected HEK293 cells (Boyden chamber); assay type: cell-based; settings: chemotactic inhibition rate, compound 1 μM, HEK293 cells transfected with pCDI-CCR4, 5 hours
T1 construct: cDNA fragments of receptor open reading frame were respectively inserted into pcDI; expressed in transfected cells; host or cells: HEK293 cells, transiently transfected by electroporation with pCDI-CCR4
T1 sequence (P51679 1-360): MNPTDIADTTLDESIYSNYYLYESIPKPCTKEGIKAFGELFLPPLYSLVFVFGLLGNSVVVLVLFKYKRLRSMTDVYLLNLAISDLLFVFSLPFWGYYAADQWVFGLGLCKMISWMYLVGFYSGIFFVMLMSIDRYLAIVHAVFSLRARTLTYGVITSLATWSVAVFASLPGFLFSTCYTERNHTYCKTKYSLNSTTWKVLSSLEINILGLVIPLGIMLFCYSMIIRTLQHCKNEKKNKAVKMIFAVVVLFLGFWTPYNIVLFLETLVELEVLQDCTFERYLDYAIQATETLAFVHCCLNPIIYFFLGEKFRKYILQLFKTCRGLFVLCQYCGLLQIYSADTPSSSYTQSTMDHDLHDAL
Excerpt: Whether or not compounds 1-14 of the present invention can inhibit MDC (Peprotech) mediated chemotactic response of HEK293 cells was studied by using Boyden chamber (Neuro Probe, Inc.).
1. Construction of Receptor Expression Plasmid:
cDNA fragments including human chemokine receptor open reading frame were obtained by the following method: CCR4 receptor was cloned from a cDNA library of K562 cells through polymerase chain reaction (PCR). Primers were designed according to the sequence of Gen-Bank™ accession: CCR4 (NM_005508.2). cDNA fragments of receptor open reading frame were respectively inserted into pcDI (vector transformed in the chamber: eukaryotic expression vector obtained by replacing a BglII KpnI fragment of pcDNA3 (Invitrogen Corporation) plasmid with a BglII KpnI fragment of pCI (Promega Corporation) plasmid) expression vector so as to make them effectively express in HEK293 cells.
HEK293 cells were cultured in RPMI 1640 (Life Technologies, Inc.) containing 10% heat-inactivated fetal bovine serum, 100 U/mL penicillin, 100 μg/mL streptomycin. Each 4×10^6 HEK293 cells/400 μL were transiently transfected through electroporation with 15 μg chemokine receptor expression plasmids, under the condition of 120 V for 20 ms, the instrument used being electric pulse generator (Electro Square porator ECM 830, BTX, San Diego, Calif.). After 36-48 hr, chemotactic assay was carried out.
3. The Inhibitory Effect on MDC/TARC/C27 Mediated Chemotactic Response of HEK293 Cells
Chemokines MDC/TARC/C27 were diluted to 10 ng/mL with RPMI1640 (Life Technologies, Inc.), 0.1% BSA (Sigma), and added to lower holes in a 48-hole chemotactic chamber, 27.5 μL each hole. Eukaryotic expression plasmids pCDI-CCR4 were electrically shifted to HEK293 cells, and cultured normally for 36 hr. The cells were digested, re-suspended with RPMI1640, 10% FBS (Life Technologies, Inc.), and subjected to rotary incubation at 37° C. for 6.5 hours. The cells were washed twice with RPMI1640, and suspended in RPMI1640, 0.1% BSA, with a final concentration of 1×10^6/mL. The cells and the candidate compound dissolved in DMSO (Sigma) were subjected to rotary incubation at room temperature for half an hour, the final concentration of the candidate compound being 1 μM, and the final concentration of DMSO being 0.1%, and then added to upper holes in the chemotactic chamber, 55 μL each hole. The two layers were spaced by a polycarbon membrane with pore size of […] (Neuro Probe, Inc.). The chemotactic reaction was carried out in 5% CO2 at 37° C. for 5 hours. There were three groups of control in the experiment, wherein the first group was positive control, in which the transfected cells were directly added to upper holes without incubated with the candidate compound, while chemokines MDC/TARC/C27 were added to lower holes. The second group was negative control, in which the transfected cells were directly added to upper holes without incubated with the candidate compound, while RPMI1640, 0.1% BSA were added to lower holes. The third group was solvent DMSO control of the candidate compound, in which the transfected cells and DMSO were incubated at room temperature, the final concentration of DMSO being 0.1%, while chemokines MDC/TARC/C27 were added to lower holes. After completion of the chemotactic reaction, the membrane was removed, fixed and stained, and, at 400× high magnification, five horizons were randomly selected to count the cells, which were then summed. The ratio of the sum of the numbers of cells in five horizons at high magnification in each experimental group to the sum of the numbers of cells in five horizons at high magnification in the negative control group is obtained as Chemotactic Index (CI). Chemotactic inhibition rate was calculated as follows: […]

[1] = OVA-sensitized female BALB/c mice, nasal mucosa, budesonide 1.28 mg/Kg, within 10 min after administration
[2] = versus OVA-sensitized group, budesonide 1.28 mg/Kg

inhibition at 1 µM (CCR4 receptor; chemokine C27 10 ng/mL, read-out: C27 inhibition rate): 69.8%
inhibition at 1 µM (CCR4 receptor; chemokine MDC 10 ng/mL, read-out: MDC inhibition rate): 79.2%
inhibition at 1 µM (CCR4 receptor; chemokine TARC 10 ng/mL, read-out: TARC inhibition rate): 60.4%
Compound: O=C([C@H]1CCCCN1)N1CCN(c2nc(Cl)cc(NCc3ccc(Cl)cc3Cl)n2)CC1 [Compound 8, (R)-{4-{4-chloro-6-[(2,4-dichlorobenzyl)amino]pyrimidin-2-yl}piperazin-1-yl}(piperidin-2-yl)methanone]
IL-4 (mice rhinitis model; IL-4 level in bronchoalveolar lavage fluid, OVA-sensitized mice, budesonide 1.28 mg/Kg): 3.7 ± 0.3 pg/mL
Nasal scratching (mice rhinitis model; [1]): 8.0 ± 0.6 times/10 mins
Sneezing (mice rhinitis model; [1]): 29.0 ± 3.5 times/10 mins
Inflammation score (mice rhinitis model; lung tissue inflammation score 0-3, single blind, OVA-sensitized mice, budesonide 1.28 mg/Kg): 2.2 ± 0.4
IgE (mice rhinitis model; serum IgE level, OVA-sensitized mice, budesonide 1.28 mg/Kg): 2861 ± 49 ng/mL
serum IgE level (result in words) (mice rhinitis model; versus OVA-sensitized and normal control groups, budesonide 1.28 mg/Kg): higher than that of the normal control group
IL-4 level in bronchoalveolar lavage fluid (result in words) (mice rhinitis model; [2]): significantly lower than that of the OVA-sensitized group
lung tissue inflammation score (result in words) (mice rhinitis model; [2]): lower than that of the OVA-sensitized group
number of sneezing (result in words) (mice rhinitis model; [2]): could significantly reduce the number of sneezing
number of nasal scratching (result in words) (mice rhinitis model; versus other groups): lower than that of any of other groups
